Measurements taken from PubChem BioAssay (NCI).
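Tested at 5 concentrations; 48 h exposure; 96-well plates; endpoints linearly interpolated, else capped at highest concentration. TGI is the concentration that stops growth completely.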

Columns and labels:
Test in all cases: NCI tumour cell line growth inhibition, 48 h
SW-620 colon = system: SW-620 colon
LXFL 529 NSCLC = system: LXFL 529 NSCLC
XF 498 CNS = system: XF 498 CNS
DMS 273 small cell lung = system: DMS 273 small cell lung
RXF-631 renal = system: RXF-631 renal
KM20L2 colon = system: KM20L2 colon
DMS 114 small cell lung = system: DMS 114 small cell lung
DLD-1 colon = system: DLD-1 colon
HOP-18 NSCLC = system: HOP-18 NSCLC
M19-MEL melanoma = system: M19-MEL melanoma
SNB-78 CNS = system: SNB-78 CNS

CC(C)(C)OC(=O)N1CCCC1C(=O)NC(c1ccccc1)c1ccccc1 (stereo not given)
TGI (SW-620 colon): > 100 µM

O=C1NC2(CCNCC2)Oc2ccccc21
TGI (SW-620 colon): > 100 µM

Cc1c(/C=N/NC(=S)N2CCCCC2)c(=O)n(-c2ccccc2)n1C
TGI (SW-620 colon): > 100 µM

Cc1cn(C2CC(N=[N+]=[N-])C(COP(=O)(O)OCC3OC(n4cc(F)c(=O)[nH]c4=O)CC3O)O2)c(=O)[nH]c1=O (stereo not given)
TGI (SW-620 colon): > 100 µM

COc1ccc(-c2nc(Nc3ccccc3)sc2Cc2sc(Nc3ccccc3)nc2-c2ccc(OC)cc2)cc1
TGI (SW-620 colon): > 100 µM

O=[N+]([O-])c1cccc2nccc(NCCN3CCOCC3)c12
TGI (SW-620 colon): 33.7 µM

COc1cc(C2c3cc4c(cc3C(=O)C3CCC(=O)N32)OCO4)cc(OC)c1O (stereo not given)
TGI (SW-620 colon): > 50 µM

C=C1C(=O)O[C@H]2C1C[C@H](O)[C@@]1(C)OC1CC[C@@]1(C)O[C@H]21 (stereo not given in full)
TGI (SW-620 colon): 33.2 µM

CC(C)[C@H]1NC(=O)[C@H]2N=C(S[C@H]2C)[C@@H]2CCCN2C(=O)[C@H](Cc2ccccc2)NC(=O)[C@@H]2CSC(=N2)[C@@H](Cc2ccccc2)NC(=O)[C@@H]2CSC1=N2
TGI (SW-620 colon): > 50 µM

C=C1C2=C(CCCC2)C(=O)OC12CCCCC2
TGI (LXFL 529 NSCLC): > 100 µM | TGI (XF 498 CNS): > 100 µM | TGI (DMS 273 small cell lung): > 100 µM | TGI (RXF-631 renal): > 100 µM | TGI (KM20L2 colon): > 100 µM | TGI (DMS 114 small cell lung): > 100 µM | TGI (DLD-1 colon): > 100 µM | TGI (HOP-18 NSCLC): > 100 µM | TGI (M19-MEL melanoma): > 100 µM | TGI (SW-620 colon): > 100 µM

C[C@@H]1CC[C@H]2[C@H](C)C(OC3O[C@@H]4O[C@@]5(C)CC[C@H]6[C@H](C)CC[C@@H]([C@@H]3C)[C@@]46O5)O[C@@H]3O[C@@]4(C)CC[C@@H]1[C@]32O4 (stereo not given in full)
TGI (SW-620 colon): > 100 µM

CN1CCc2ccccc2C(C(=O)c2ccc3c(c2)OCO3)C1=O (stereo not given)
TGI (LXFL 529 NSCLC): > 100 µM | TGI (XF 498 CNS): > 100 µM | TGI (DMS 273 small cell lung): > 100 µM | TGI (RXF-631 renal): > 100 µM | TGI (KM20L2 colon): > 100 µM | TGI (DMS 114 small cell lung): > 100 µM | TGI (DLD-1 colon): > 100 µM | TGI (HOP-18 NSCLC): > 100 µM | TGI (M19-MEL melanoma): > 100 µM | TGI (SW-620 colon): > 100 µM

COc1cc([C@@H]2c3cc4c(cc3[C@@H](Nc3ccc(Cl)cc3C(=O)c3ccccc3)[C@H]3COC(=O)[C@H]23)OCO4)cc(OC)c1OC
TGI (SW-620 colon): > 100 µM

CC(C)(C)O/N=C/c1cc(NC(=S)c2ccsc2)ccc1Cl
TGI (SW-620 colon): 55.2 µM

O=[N+]1[C@H](c2ccccc2)[C@H](c2ccccc2)N1[O-]
TGI (SW-620 colon): 28.2 µM

O=C1NC(N/N=C\c2ccccc2)=N/C1=C/c1ccccc1
TGI (SW-620 colon): > 100 µM

CN=c1sc2nc(C#N)c(C#N)nc2n1C
TGI (SW-620 colon): 36.2 µM

O=c1[nH][nH]c(=O)c2c1ccc1oc3ccccc3c12
TGI (SW-620 colon): > 100 µM

COC(=O)[C@@](NC(=O)OCc1ccccc1)([C@H](C)O)C(F)(F)F
TGI (SW-620 colon): > 100 µM

CC1=NN(c2nc(N)nc(/C(C#N)=C\c3ccc(-c4ccc([N+](=O)[O-])cc4)o3)n2)C(C)(C)C1
TGI (SW-620 colon): > 100 µM

Cc1ccc(S(=O)(=O)N2CCSCCSCCSCCN(S(=O)(=O)c3ccc(C)cc3)CC2)cc1
TGI (SW-620 colon): > 100 µM

O=C(/C=C/c1ccccc1O)c1ccccc1Cl
TGI (LXFL 529 NSCLC): > 100 µM | TGI (XF 498 CNS): > 100 µM | TGI (DMS 273 small cell lung): > 100 µM | TGI (RXF-631 renal): > 100 µM | TGI (KM20L2 colon): > 100 µM | TGI (DMS 114 small cell lung): 58 µM | TGI (DLD-1 colon): > 100 µM | TGI (HOP-18 NSCLC): > 100 µM | TGI (SNB-78 CNS): > 100 µM | TGI (M19-MEL melanoma): > 100 µM | TGI (SW-620 colon): > 100 µM
